Format in all cases: functional, cell-based
Series [1] deals with T1, Solute carrier organic anion transporter family member 1A1 (Rattus norvegicus, UniProt P46720).
T1 sequence (P46720 whole entry): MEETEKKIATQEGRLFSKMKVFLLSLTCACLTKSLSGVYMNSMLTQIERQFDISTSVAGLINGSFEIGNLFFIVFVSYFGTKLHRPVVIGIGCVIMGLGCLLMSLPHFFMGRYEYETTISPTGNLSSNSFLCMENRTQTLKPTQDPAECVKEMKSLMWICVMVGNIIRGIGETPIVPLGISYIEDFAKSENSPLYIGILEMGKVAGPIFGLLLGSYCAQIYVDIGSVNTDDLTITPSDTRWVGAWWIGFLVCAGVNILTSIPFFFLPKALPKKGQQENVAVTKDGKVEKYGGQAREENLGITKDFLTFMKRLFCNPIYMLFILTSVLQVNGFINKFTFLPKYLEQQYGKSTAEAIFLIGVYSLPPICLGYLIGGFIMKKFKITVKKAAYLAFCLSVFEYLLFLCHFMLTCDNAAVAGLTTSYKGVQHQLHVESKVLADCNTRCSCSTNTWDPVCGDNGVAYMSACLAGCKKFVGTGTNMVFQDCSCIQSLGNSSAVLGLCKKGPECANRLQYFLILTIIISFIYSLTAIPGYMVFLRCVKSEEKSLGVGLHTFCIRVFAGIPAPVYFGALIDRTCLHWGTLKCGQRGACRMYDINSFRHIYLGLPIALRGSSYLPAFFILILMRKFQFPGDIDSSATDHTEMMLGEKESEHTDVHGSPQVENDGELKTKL
Kind of series: TP_TRANSPORTER: uptake in Oatp1-expressing HeLa cells. To be noted: human.

In series [2] the target is T2, Solute carrier organic anion transporter family member 1A2 (Homo sapiens, UniProt P46721).
T2 sequence (P46721 whole entry): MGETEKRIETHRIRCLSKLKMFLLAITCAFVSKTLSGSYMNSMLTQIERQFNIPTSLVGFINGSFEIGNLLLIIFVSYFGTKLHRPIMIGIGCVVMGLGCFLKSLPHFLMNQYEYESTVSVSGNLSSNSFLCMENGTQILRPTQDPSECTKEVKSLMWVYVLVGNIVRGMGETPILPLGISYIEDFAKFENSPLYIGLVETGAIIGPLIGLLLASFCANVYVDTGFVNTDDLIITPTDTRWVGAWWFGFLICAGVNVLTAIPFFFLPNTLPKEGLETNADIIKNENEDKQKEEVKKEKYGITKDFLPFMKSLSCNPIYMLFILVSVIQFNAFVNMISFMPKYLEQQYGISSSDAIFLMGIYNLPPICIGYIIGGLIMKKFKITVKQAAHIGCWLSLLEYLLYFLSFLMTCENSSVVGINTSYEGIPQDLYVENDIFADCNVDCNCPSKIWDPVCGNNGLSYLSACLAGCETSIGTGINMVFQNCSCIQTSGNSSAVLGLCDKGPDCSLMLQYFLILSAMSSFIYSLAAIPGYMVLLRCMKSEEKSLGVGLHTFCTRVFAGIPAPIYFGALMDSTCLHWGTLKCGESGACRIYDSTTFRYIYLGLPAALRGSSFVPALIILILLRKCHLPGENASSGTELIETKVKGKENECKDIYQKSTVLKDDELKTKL
Kind of series: TP_TRANSPORTER: uptake in OATP-expressing HeLa cells.

In series [3] the target is T3, Solute carrier organic anion transporter family member 1A4 (Rattus norvegicus, UniProt O35913).
T3 sequence (O35913 whole entry): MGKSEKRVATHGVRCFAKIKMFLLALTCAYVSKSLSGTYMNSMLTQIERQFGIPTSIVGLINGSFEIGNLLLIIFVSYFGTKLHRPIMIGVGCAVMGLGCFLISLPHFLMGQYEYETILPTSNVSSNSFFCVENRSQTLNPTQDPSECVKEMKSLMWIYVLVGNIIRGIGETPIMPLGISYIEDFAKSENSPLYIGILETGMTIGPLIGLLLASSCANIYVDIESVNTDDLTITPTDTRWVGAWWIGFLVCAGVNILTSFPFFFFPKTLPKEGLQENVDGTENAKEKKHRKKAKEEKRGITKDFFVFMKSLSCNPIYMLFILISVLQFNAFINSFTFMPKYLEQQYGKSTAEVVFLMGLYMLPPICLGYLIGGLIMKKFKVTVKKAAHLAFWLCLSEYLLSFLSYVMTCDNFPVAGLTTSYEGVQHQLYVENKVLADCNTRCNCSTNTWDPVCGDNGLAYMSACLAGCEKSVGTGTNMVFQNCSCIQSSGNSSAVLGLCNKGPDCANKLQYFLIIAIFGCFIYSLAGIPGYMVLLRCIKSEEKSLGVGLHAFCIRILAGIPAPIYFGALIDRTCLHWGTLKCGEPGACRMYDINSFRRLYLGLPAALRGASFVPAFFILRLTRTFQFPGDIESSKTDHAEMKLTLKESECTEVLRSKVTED
The series can be described thus: TP_TRANSPORTER: uptake in Oatp2-expressing HeLa cells. The conditions noted are these: human.

For 1 molecule, Activity results are on record in ChEMBL document CHEMBL2074475, “Uptake of enalapril and expression of organic anion transporting polypeptide 1 in zonal, isolated rat hepatocytes” (Drug Metab Dispos, 2000).

Turning to `CCOC(=O)[C@H](CCc1ccccc1)N[C@@H](C)C(=O)N1CCC[C@H]1C(=O)O` [ENALAPRIL], the Activity entry in series [1] was “substrate [+]”; in series [2], “is not a substrate [-]”; in series [3], “is not a substrate [-]”.
